We go through 7 compounds from patent publication US4321372A, “Antiulcer thiazol-2-ylcarbamoyl-carboxylic acids, esters and amides” (Pfizer Inc., priority 1980, dated 1982).

The inhibition is the drop in the measured response relative to a control, in per cent.

Where a name gives a salt, the structure may show the parent alone.

In assay [1] the test system is ethanol-induced rat ulcer. The experiment in a line: Ethanol-induced rat ulcer assay (oral antiulcer activity). It counts as in vivo. The note with it: for inhibition at 5 mg/kg: Rattus norvegicus, po; for inhibition at 5 mg/kg / % Inhibition (oral activity in the ethanol-induced rat ulcer assay): 5 mg./kg. orally, 15 min before absolute ethanol (1.0 ml.), male fasted rats, 8/group, lesions scored 1 hour after ethanol, based on ulcer index vs controls. How it is done:
The antiulcer activity of the compounds of the present invention is evaluated by an ethanol-induced rat ulcer assay, a test reflecting clinical utility of these compounds in the treatment of peptic ulcers, particularly gastric ulcers.
The effectiveness of the products of this invention as antiulcer agents is determined in an ethanol-induced rat ulcer assay. In this test, overnight fasted male rats are orally administered either drug (5 mg./kg.) dissolved or suspended in water or dilute NaOH, or water (controls), fifteen minutes prior to an orally administered dose of absolute ethanol (1.0 ml.). One hour after the ethanol challenge the animals (8/group) are killed and the stomachs examined for the presence of lesions. After sacrifice the abdomen is opened and a locking hemostate placed at the pylorus. Six ml. of a 4% solution of formaldehyde is injected into the stomach with a gastric feeding tube and a second locking hemostate is used to seal the esophagus. The stomach is removed, opened along the greater curvature and examined for ulceration.
The scoring system used to quantitate the ethanol-induced lesions is given below.
1 Normal appearing stomach
2 Pinpoint sized lesions
3 Lesions, 2 or fewer; pin-
5 Lesions with hemorrhage
For each group of animals an ulcer index is calculated as follows:
Ulceration Index=(the sum of the scores of the group)×(the sum of the number of ulcers in the group)×(the fraction of the group having any incidence of ulceration).
The percent inhibition of ulcers is calculated as follows:
% Inhibition=100×[(ulcer index controls)-(ulcer index drug-treated)].div.(ulcer index controls).

A further assay concerns gastric ulcers. The note with it: animals, including humans; cited from earlier work.
The next assay concerns antiallergic activity. Conditions: cited from earlier work.

Regarding `CCOC(=O)C(=O)Nc1nc(C)c(C)s1` [Example 16, ethyl 4,5-dimethylthiazol-2-ylcarbamoylcarboxylate], the inhibition at 5 mg/kg in assay [1] stood at 62%. Still for that read-out and setting: the figure for `CCOC(=O)C(=O)Nc1nc(CC)c(CC)s1` [Example 18, ethyl 4,5-diethylthiazol-2-ylcarbamoylcarboxylate] is 81%. The compound `CCOC(=O)C(=O)Nc1nc2c(s1)CCCC2` [Example 23, ethyl 4,5,6,7-tetrahydrobenzthiazol-2-ylcarbamoylcarboxylate] registered an inhibition at 5 mg/kg in assay [1] of 51%. For `CC1(C)[C@@H](OC(=O)CCC(=O)O)CC[C@]2(C)[C@H]3C(=O)C=C4[C@@H]5C[C@@](C)(C(=O)O)CC[C@]5(C)CC[C@@]4(C)[C@]3(C)CC[C@@H]12` [carbenoxolone sodium, disodium salt of the hemisuccinate of glycyrrhetinic acid], the “effect on gastric ulcers” value in the assay with gastric ulcers is “prevent formation of and to accelerate healing of gastric ulcers”.

With `CCOC(=O)C(=O)Nc1nccs1` [ethyl thiazol-2-ylcarbamoylcarboxylate], in assay [1], the “% Inhibition (oral activity in the ethanol-induced rat ulcer assay)” value is “inactive” and at 5 mg/kg the inhibition was 3%. In assay [1] (compared with compounds of the invention), the “antiulcer activity (in words)” value was “lacking in the antiulcer activity”. Moreover, the “antiallergic activity, parenteral” value in the assay on antiallergic activity (high parenteral dose) is recorded as “antiallergic activity”. In the assay on antiallergic activity (oral, even at 200 mg./kg.), the “antiallergic activity, oral” value is reported as “no significant oral activity”. With “ethyl 4-methylthiazol-2-ylcarbamoylcarboxylate [Example 14]”, the “% Inhibition (oral activity in the ethanol-induced rat ulcer assay)” value in assay [1] worked out at 59%. Same read-out and setting: to “ethyl 5-methylthiazol-2-ylcarbamoylcarboxylate [Example 15]” belongs 48%.
